Legend:
Test in all cases: cells
Set-up in all cases: species or system panel of 482 human cancer cell lines; ATPLite luminescence growth inhibition after treatment, nine-point dilution curve, 482 cancer cell lines, 384-well
Details in all cases: 72 h, recommended growth medium
NCIH841_LUNG = system: NCIH841_LUNG
Procedure, shortened: (§1)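 Growth inhibition was measured across a panel of 482 cancer cell lines. Cells were plated at 500 cells per well in recommended growth media in black, tissue culture treated 384-well plates, centrifuged to equilibrate, and incubated 24 h before dosing. Compounds were tested as nine-point dilution curves for 72 h, with viability read by ATPLite luminescence relative to DMSO-treated controls.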

SNU61_LARGE_INTESTINE = system: SNU61_LARGE_INTESTINE
Procedure, shortened: as §1

SKNFI_AUTONOMIC_GANGLIA = system: SKNFI_AUTONOMIC_GANGLIA
Procedure, shortened: as §1

[1] = system: WSUNHL_HAEMATOPOIETIC_AND_LYMPHOID_TISSUE
Procedure, shortened: as §1

[2] = system: SUDHL2EPST_HAEMATOPOIETIC_AND_LYMPHOID_TISSUE
Procedure, shortened: as §1

[3] = system: HUNS1_HAEMATOPOIETIC_AND_LYMPHOID_TISSUE
Procedure, shortened: as §1

JHH5_LIVER = system: JHH5_LIVER
Procedure, shortened: as §1

[4] = system: SUDHL5_HAEMATOPOIETIC_AND_LYMPHOID_TISSUE
Procedure, shortened: as §1

NCIH1666_LUNG = system: NCIH1666_LUNG
Procedure, shortened: as §1

NCIH2170_LUNG = system: NCIH2170_LUNG
Procedure, shortened: as §1

HCC2218_BREAST = system: HCC2218_BREAST
Procedure, shortened: as §1

LK2_LUNG = system: LK2_LUNG
Procedure, shortened: as §1

NCIN87_STOMACH = system: NCIN87_STOMACH
Procedure, shortened: as §1

EVSAT_BREAST = system: EVSAT_BREAST
Procedure, shortened: as §1

[5] = system: TMD8_HAEMATOPOIETIC_AND_LYMPHOID_TISSUE
Procedure, shortened: as §1

HT115_LARGE_INTESTINE = system: HT115_LARGE_INTESTINE
Procedure, shortened: as §1

- GI50 (SNU61_LARGE_INTESTINE): 280 nM
- GI50 (SKNFI_AUTONOMIC_GANGLIA): 15.1 nM
- GI50 [2]: 25.7 nM
- GI50 [4]: 25.5 nM
- GI50 (HCC2218_BREAST): 7170 nM
SMILES: CCN(C/C=C/C#CC(C)(C)C)Cc1cccc(OCc2cc(-c3ccsc3)cs2)c1 [NB-598]
- GI50 (NCIH841_LUNG): 13200 nM
- GI50 [1]: 21.8 nM
- GI50 [3]: 170 nM
- GI50 (JHH5_LIVER): 42700 nM
- GI50 (NCIH1666_LUNG): 24.9 nM
- GI50 (NCIH2170_LUNG): 608 nM
- GI50 (LK2_LUNG): 22.4 nM
- GI50 (NCIN87_STOMACH): 9650 nM
- GI50 (EVSAT_BREAST): 32400 nM
- GI50 [5]: 131 nM
- GI50 (HT115_LARGE_INTESTINE): 2720 nM

— PMC6327044, “A chemical biology screen identifies a vulnerability of neuroendocrine cancer cells to SQLE inhibition” (Nature Communications, 2019)
